According to patent publication US20230140983A1, “PYRIDAZINE DERIVATIVES FOR MODULATING NUCLEIC ACID SPLICING” (REMIX THERAPEUTICS INC., priority 2020, published 2023):
Like-named read-outs stand apart in the source and are kept apart here.

System: HTT
Test: Splicing assay (RT-qPCR on cell lysates) monitoring HTT splice variants: AJ and CJ mRNA
Type: cell-based
Conditions: concentration having 50% response
Experimental: Example 69: Exemplary Splicing Assay for Monitoring Expression Levels of Splice Variants
To set up 10 uL RT-qPCR reactions, cell lysates were transferred to 384-well qPCR plates containing the master mix according to the table below. The plates were sealed, gently vortexed, and spun down before the run. The volumes were adjusted accordingly in some instances where the reaction was carried in 20 uL. The table below summarizes the components of the RT-qPCR reactions:
The RT-qPCR reaction was performed using a QuantStudio (ThermoFisher) under the following fast cycling conditions. All samples and standards were analyzed at least in duplicate. In some instances, bulk room temperature (RT) step of 5-10 minutes was completed for all plates before proceeding with qPCR. The table below summarizes the PCR cycle:
The data analysis was performed by first determining the ΔCt vs the housekeeper gene. This ΔCt was then normalized against the DMSO control (ΔΔCt) and converted to RQ (relative quantification) using the 2^(−ΔΔCt) equation. The RQ were then converted to a percentage response by arbitrarily setting an assay window of 3.5 ΔCt for HTT-CJ and an assay window of 9 ΔCt for HTT-AJ. […] The percentage response was then fitted to the 4 parametric logistic equation to evaluate the concentration dependence of compound treatment. The increase in AJ mRNA is reported as AC50 (compound concentration having 50% response in AJ increase) while the decrease in CJ mRNA levels is reported as IC50 (compound concentration having 50% response in CJ decrease).

[1] = Table 8, decrease in CJ mRNA, read-out: HTT CJ AC50
[2] = Table 8, increase in AJ mRNA, read-out: HTT AJ AC50
[3] = Table 7, decrease in CJ mRNA, read-out: HTT CJ AC50
[4] = Table 7, increase in AJ mRNA, read-out: HTT AJ AC50

Row | SMILES | AC50 [1] [µM] | AC50 [2] [µM] | AC50 [3] [µM] | AC50 [4] [µM]
1 | c1n[nH]cc1-c1ccc(-c2ccc(N3CCCC4(CNC4)C3)nn2)c2[nH]ncc12 [Compound 251] | > 10 | > 10 |  | 
2 | CN(c1ccc(-c2ccc(-c3cn[nH]c3)c3ncsc23)nn1)C1CC(C)(C)NC(C)(C)C1 [Compound 132, N-methyl-6-[4-(1H-pyrazol-4-yl)-1,3-benzothiazol-7-yl]-N-(2,2,6,6-tetramethylpiperidin-4-yl)pyridazin-3-amine] |  |  | < 0.5 | < 0.5
3 | CN(c1ccc(-c2ccc(-c3c[nH]nn3)c3cn[nH]c23)nn1)[C@@H]1C[C@H]2CC[C@@H](C1)N2 [Compound 141] |  |  | < 0.5 | < 0.5
4 | CC1(C)CC(Oc2ccc(-c3ccc(-c4cn[nH]c4)c4cn[nH]c34)nn2)CC(C)(C)N1 [Compound 138, 4-(1H-pyrazol-4-yl)-7-[6-[(2,2,6,6-tetramethylpiperidin-4-yl)oxy]pyridazin-3-yl]-1H-indazole] |  |  | < 0.5 | 0.5 to 5
5 | CN(c1ccc(-c2ccc(-c3cnn(C)c3)c3cn[nH]c23)nn1)C1CCNCC1 [Compound 242, N-methyl-6-[4-(1-methylpyrazol-4-yl)-1H-indazol-7-yl]-N-(piperidin-4-yl)pyridazin-3-amine;trifluoroacetic acid] | > 10 | > 10 |  | 
6 | CN(c1ccc(-c2ccc(-c3cnnc(O)c3)c3scnc23)nn1)C1CC(C)(C)NC(C)(C)C1 [Compound 234] | > 10 | > 10 |  | 
7 | CN(c1ccc(-c2ccc(-c3cn[nH]c3)c3cn[nH]c23)nn1)[C@@H]1C[C@H]2CC[C@@H](C1)N2 [Compound 104, (1R,3S,5S)—N-methyl-N-[6-[4-(1H-pyrazol-4-yl)-1H-indazol-7-yl]pyridazin-3-yl]-8-azabicyclo[3.2.1]octan-3-amine] |  |  |  | < 0.5
8 | c1n[nH]cc1-c1ccc(-c2ccc(N3CCCC4(CCNC4)C3)nn2)c2[nH]ncc12 (stereo not shown) [Compound 253] | > 10 | > 10 |  | 
9 | CN(c1cnc(-c2cc(F)c(-c3cn[nH]c3)c3cn[nH]c23)nn1)[C@@H]1C[C@H]2CC[C@@H](C1)N2 [Compound 149] |  |  | < 0.5 | < 0.5
10 | c1n[nH]cc1-c1ccc(-c2ccc(N3CCNCC3)nn2)c2[nH]ncc12 [Compound 241] | > 10 | 1 to 10 |  | 
11 | COc1cc(-c2ccc(-c3ccc(N(C)C4CC(C)(C)NC(C)(C)C4)nn3)c3scnc23)ccn1 [Compound 280] | 0.1 to 1 | 0.1 to 1 |  | 
12 | c1nc2c(-c3cn[nH]c3)ccc(-c3ccc(N4CCC45CCNC5)nn3)c2s1 (stereo not shown) [Compound 277] | > 10 | > 10 |  | 
13 | c1nc2c(-c3cn[nH]c3)ccc(-c3ccc(N4CCC45CCCNC5)nn3)c2s1 (stereo not shown) [Compound 276] | 1 to 10 | 1 to 10 |  | 
14 | c1n[nH]cc1-c1ccc(-c2ccc(NC3CNC3)nn2)c2[nH]ncc12 [Compound 237] | > 10 | > 10 |  | 
15 | CN(c1ccc(-c2ccc(-c3cn[nH]c3)c3nn[nH]c23)nn1)[C@@H]1C[C@H]2CC[C@@H](C1)N2 [Compound 118, (1R,3S,5S)—N-methyl-N-[6-[7-(1H-pyrazol-4-yl)-3H-1,2,3-benzotriazol-4-yl]pyridazin-3-yl]-8-azabicyclo[3.2.1]octan-3-amine] |  |  | 0.5 to 5 | 0.5 to 5
16 | CN(c1ccc(-c2ccc(-c3cnn(C)c3)c3cn[nH]c23)nn1)[C@@H]1C[C@H]2CC[C@@H](C1)N2 [Compound 143] |  |  | < 0.5 | 0.5 to 5
17 | C[C@@H]1C[C@H](N(C)c2ccc(-c3ccc(-n4cccn4)c4nn[nH]c34)nn2)CCN1 [Compound 117, N-methyl-N-[(2R,4R)-2-methylpiperidin-4-yl]-6-[7-(pyrazol-1-yl)-3H-1,2,3-benzotriazol-4-yl]pyridazin-3-amine] |  |  | > 5 | > 5
18 | C[C@H]1C[C@@H](N(C)c2ccc(-c3ccc(-c4cn[nH]c4)c4cn[nH]c34)nn2)CCN1 [Compound 160] |  |  | > 5 | > 5
19 | CC1(C)CC(Nc2ccc(-c3ccc(-c4cn[nH]c4)c4cn[nH]c34)nn2)CC(C)(C)N1 [Compound 275] | 0.1 to 1 | 1 to 10 |  | 
20 | c1nc2c(-c3cn[nH]c3)ccc(-c3ccc(N4CCC45CCNCC5)nn3)c2s1 [Compound 266] | 1 to 10 | > 10 |  | 

Row | SMILES | AC50 [1] [µM] | AC50 [2] [µM] | AC50 [3] [µM] | AC50 [4] [µM]
21 | CN(c1ccc(-c2ccc(-c3cn[nH]c3)c3cc[nH]c23)nn1)[C@@H]1C[C@H]2CC[C@@H](C1)N2 [Compound 112, (1R,3S,5S)—N-methyl-N-[6-[4-(1H-pyrazol-4-yl)-1H-indol-7-yl]pyridazin-3-yl]-8-azabicyclo[3.2.1] octan-3-amine] |  |  | < 0.5 | 0.5 to 5
22 | c1n[nH]cc1-c1ccc(-c2ccc(O[C@@H]3C[C@H]4CC[C@@H](C3)N4)nn2)c2[nH]ncc12 [Compound 142, 7-[6-[(1R,3S,5S)-8-azabicyclo[3.2.1]octan-3-yloxy]pyridazin-3-yl]-4-(1H-pyrazol-4-yl)-1H-indazole] |  |  | < 0.5 | 0.5 to 5
23 | c1n[nH]cc1-c1ccc(-c2ccc(N3CCC4(CCNC4)CC3)nn2)c2[nH]ncc12 [Compound 240] | > 10 | > 10 |  | 
24 | c1n[nH]cc1-c1ccc(-c2ccc(N3CCC4(CCNCC4)C3)nn2)c2[nH]ncc12 [Compound 239] | > 10 | > 10 |  | 
25 | CN(c1ccc(-c2ccc(-n3cccn3)c3cn[nH]c23)nn1)[C@@H]1C[C@H]2CC[C@@H](C1)N2 [Compound 105, (1R,3R,5S)—N-methyl-N-[6-[4-(pyrazol-1-yl)-1H-indazol-7-yl]pyridazin-3-yl]-8-azabicyclo[3.2.1]octan-3-amine] |  |  | < 0.5 | < 0.5
26 | CN(c1ccc(-c2ccc(-c3cnn(C)c3)c3cn[nH]c23)nn1)C1CC(C)(C)NC(C)(C)C1 [Compound 243, N-methyl-6-[4-(1-methylpyrazol-4-yl)-1H-indazol-7-yl]-N-(2,2,6,6-tetramethylpiperidin-4-yl)pyridazin-3-amine; trifluoroacetic acid] | 1 to 10 | 1 to 10 |  | 
27 | c1cc(-c2ccc(N3CCCN3)c3cn[nH]c23)nnc1N[C@@H]1C[C@H]2CC[C@@H](C1)N2 [Compound 278] | < 0.1 | 0.1 to 1 |  | 
28 | [2H]C([2H])([2H])N(c1ccc(-c2ccc(-c3cn[nH]c3)c3cn[nH]c23)nn1)C1CCNCC1 [Compound 267] | > 10 | > 10 |  | 
29 | CN(c1ccc(-c2ccc(-c3ccc(=O)n(C)c3)c3ncsc23)nn1)C1CC(C)(C)NC(C)(C)C1 [Compound 281] | > 10 | > 10 |  | 
30 | CN(c1ccc(-c2ccc(-n3cccn3)c3cn[nH]c23)nn1)C1CC(C)(C)NC(C)(C)C1 [Compound 150, N-methyl-6-[4-(pyrazol-1-yl)-1H-indazol-7-yl]-N-(2,2,6,6-tetramethylpiperidin-4-yl)pyridazin-3-amine] |  |  | 0.5 to 5 | 0.5 to 5
31 | CC1C[C@@H](N(C)c2ccc(-c3ccc(-n4cccn4)c4cc[nH]c34)nn2)CCN1 (stereo in doubt) [Compound 111, N-methyl-N-[(2R,4S)-2-methylpiperidin-4-yl]-6-[4-(pyrazol-1-yl)-1H-indol-7-yl]pyridazin-3-amine] |  |  | > 5 | > 5
32 | CN(c1ccc(-c2ccc(-c3ccn(C)c(=O)c3)c3ncsc23)nn1)C1CC(C)(C)NC(C)(C)C1 [Compound 279] | 1 to 10 | 1 to 10 |  | 
33 | CN1C[C@@H]2CN(c3ccc(-c4ccc(-c5cn[nH]c5)c5cn[nH]c45)nn3)C[C@@H]2C1 [Compound 255] | > 10 | > 10 |  | 
34 | CCN(c1ccc(-c2ccc(-c3cn[nH]c3)c3cn[nH]c23)nn1)C1CCNCC1 [Compound 274] | > 10 | > 10 |  | 
35 | C[C@H]1C[C@H](N(C)c2ccc(-c3ccc(-n4cccn4)c4cc[nH]c34)nn2)CCN1 [Compound 158] |  |  | > 5 | > 5
36 | c1n[nH]cc1-c1ccc(-c2ccc(NC3CCNCC3)nn2)c2[nH]ncc12 [Compound 263, N-(piperidin-4-yl)-6-[4-(1H-pyrazol-4-yl)-1H-indazol-7-yl]pyridazin-3-amine hydrogen chloride] | > 10 | > 10 |  | 
37 | c1n[nH]cc1-c1ccc(-c2ccc(N3CCC4(CC3)CNC4)nn2)c2[nH]ncc12 [Compound 238] | > 10 | > 10 |  | 
38 | CN(c1ccc(-c2ccc(-n3cccn3)c3cc[nH]c23)nn1)[C@@H]1C[C@H]2CC[C@@H](C1)N2 [Compound 113, (1R,3R,5S)—N-methyl-N-[6-[4-(pyrazol-1-yl)-1H-indol-7-yl]pyridazin-3-yl]-8-azabicyclo[3.2.1]octan-3-amine] |  |  | 0.5 to 5 | > 5
39 | COc1cc(-c2ccc(-c3ccc(N(C)C4CC(C)(C)NC(C)(C)C4)nn3)c3ncsc23)cnn1 [Compound 233] | 0.1 to 1 | 0.1 to 1 |  | 
40 | CN(c1ccc(-c2ccc(-c3cn[nH]c3)c3cn[nH]c23)nn1)[C@H]1C[C@]2(C)CC[C@](C)(C1)N2 [Compound 146, N,1,5-trimethyl-N-[6-[4-(1H-pyrazol-4-yl)-1H-indazol-7-yl]pyridazin-3-yl]-8-azabicyclo[3.2.1]octan-3-amine] |  |  | < 0.5 | < 0.5
